What is called IC50 is the concentration that inhibits the measured activity by half.

The text below walks through data of patent US11702422B2, “Imidazopyridazines as modulators of IL-17” (Janssen Pharmaceutica NV, priority 2020, dated 2023).

Experiment [1] concerns IL-17A-induced G-CSF production in human normal keratinocyte (NHK). Description: NHK Assay: IL-17A-induced G-CSF production in human normal keratinocytes. The experiment is classed as cell-based. The following applies: Homo sapiens, Keratinocyte, 24 h, adult normal human keratinocytes, IL-17A 5 ng/mL, simple average if tested more than once. The method in brief:
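Adult NHK, 3000-4000 cells/well; rhIL-17A + titrated cpd preincubated 1 h rt, then onto cells. Final: IL-17A 5 ng/mL, DMSO 0.2%, 5% FBS. 24 h, 37° C. G-CSF in supernatant by HTRF vs standard curve; IC50. Viability by CellTiter-Glo vs DMSO.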

In experiment [2] the target is IL-17A(FLAG-Tagged): IL-17RA(His-Tagged) (Homo sapiens, UniProt Q16552, K93Q). The experiment can be described thus: IL-17A(FLAG-Tagged): IL-17RA(His-Tagged) Binding Disruption Eu-HTRF Assay. The following applies: IL-17A/IL-17RA binding disruption, simple average if tested more than once. The gist of the method:
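IC50 comes from a one-site competition fit of the HTRF 665/620 nm ratio. Compound dilutions (2-fold, 22 points) were held 1 h rt with FLAG-tagged IL-17A dimer, then His-tagged IL-17RA plus Eu-cryptate anti-FLAG and D2 anti-His antibodies were added for 2 h rt.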
On the technique in general: Time-resolved FRET reads energy transfer from a long-lived donor to a nearby acceptor.

Chain of UniProt Q16552 (Q16552 with tags, fused parts or gaps K93Q): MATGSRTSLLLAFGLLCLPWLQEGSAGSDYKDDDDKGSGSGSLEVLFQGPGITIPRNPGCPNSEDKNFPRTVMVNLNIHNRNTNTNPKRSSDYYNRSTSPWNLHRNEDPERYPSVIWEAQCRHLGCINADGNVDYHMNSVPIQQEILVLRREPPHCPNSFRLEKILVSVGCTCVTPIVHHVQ

Take `CC(C)(O)Cc1nonc1C(=O)N[C@H](c1cn2ncc([C@H](NC(=O)CC3CC(F)(F)C3)C3CC3)cc2n1)C1CCC(F)(F)CC1` [Example 394, N—((S)-(7-((R)-Cyclopropyl(2-(3,3-difluorocyclobutyl)acetamido)methyl)imidazo[1,2-b]pyridazin-2-yl)(4,4-difluorocyclohexyl)methyl)-4-(2-hydroxy-2-methylpropyl)-1,2,5-oxadiazole-3-carboxamide]: the values for the IC50 in experiment [1] and in experiment [2] were 240 nM and 200 nM, respectively.
As for `O=C(CC1CC(F)(F)C1)N[C@@H](c1cnn2cc([C@@H](NC(=O)c3nocc3C3CC3)C3CCC(F)(F)CC3)nc2c1)C1CC1` [Example 403, 4-Cyclopropyl-N—((S)-(7-((R)-cyclopropyl(2-(3,3-difluorocyclobutyl)acetamido)methyl)imidazo[1,2-b]pyridazin-2-yl)(4,4-difluorocyclohexyl)methyl)isoxazole-3-carboxamide], the values for the IC50 in experiment [1] and in experiment [2] were 170 nM and 63 nM, respectively.
As to `CN(C)c1nonc1C(=O)N[C@H](c1cn2ncc([C@H](NC(=O)CC3CC(F)(F)C3)C3CC3)cc2n1)C1CCC(F)(F)CC1` [Example 406, N—((S)-(7-((R)-Cyclopropyl(2-(3,3-difluorocyclobutyl)acetamido)methyl)imidazo[1,2-b]pyridazin-2-yl)(4,4-difluorocyclohexyl)methyl)-4-(dimethylamino)-1,2,5-oxadiazole-3-carboxamide], the IC50 in experiment [1] was 290 nM; in experiment [2], 77 nM.
For `O=C(CC1CC(F)(F)C1)N[C@@H](c1cnn2cc([C@@H](NC(=O)c3nonc3CN3CC(F)C3)C3CCC(F)(F)CC3)nc2c1)C1CC1` [Example 407, N—((S)-(7-((R)-Cyclopropyl(2-(3,3-difluorocyclobutyl)acetamido)methyl)imidazo[1,2-b]pyridazin-2-yl)(4,4-difluorocyclohexyl)methyl)-4-((3-fluoroazetidin-1-yl)methyl)-1,2,5-oxadiazole-3-carboxamide], in that order: 97 nM and 240 nM.
As for `O=C(CC1CC(F)(F)C1)N[C@@H](c1cnn2cc([C@@H](NC(=O)c3nonc3N3CCOCC3)C3CCC(F)(F)CC3)nc2c1)C1CC1` [Example 408, N—((S)-(7-((R)-Cyclopropyl(2-(3,3-difluorocyclobutyl)acetamido)methyl)imidazo[1,2-b]pyridazin-2-yl)(4,4-difluorocyclohexyl)methyl)-4-morpholino-1,2,5-oxadiazole-3-carboxamide], the IC50 in experiment [1] was determined as 370 nM; in experiment [2], 54 nM.
Turning to `COc1nonc1C(=O)N[C@H](c1cn2ncc([C@H](NC(=O)CC3CC(F)(F)C3)C3CC3)cc2n1)C1CCC(F)(F)CC1` [Example 409, N—((S)-(7-((R)-Cyclopropyl(2-(3,3-difluorocyclobutyl)acetamido)methyl)imidazo[1,2-b]pyridazin-2-yl)(4,4-difluorocyclohexyl)methyl)-4-methoxy-1,2,5-oxadiazole-3-carboxamide], the values for the IC50 in experiment [1] and in experiment [2] were 140 nM and 85 nM, respectively.
For `CC(C)(O)c1nonc1C(=O)N[C@H](c1cn2ncc([C@H](NC(=O)CC3CC(F)(F)C3)C3CC3)cc2n1)C1CCC(F)(F)CC1` [Example 410, N—((S)-(7-((R)-Cyclopropyl(2-(3,3-difluorocyclobutyl)acetamido)methyl)imidazo[1,2-b]pyridazin-2-yl)(4,4-difluorocyclohexyl)methyl)-4-(2-hydroxypropan-2-yl)-1,2,5-oxadiazole-3-carboxamide], the IC50 in experiment [1] amounted to 230 nM; in experiment [2], 120 nM.
Regarding `O=C(N[C@H](c1cn2ncc([C@H](NC(=O)C(F)(F)CC3CC3)C3CC3)cc2n1)C1CCC(F)(F)CC1)c1nonc1C1CC1` [Example 411, 4-Cyclopropyl-N—((S)-(7-((R)-cyclopropyl(3-cyclopropyl-2,2-difluoropropanamido)methyl)imidazo[1,2-b]pyridazin-2-yl)(4,4-difluorocyclohexyl)methyl)-1,2,5-oxadiazole-3-carboxamide], the IC50 in experiment [1] stood at 49 nM; in experiment [2] it was 78 nM.
`O=C(CC1CC(F)(F)C1)N[C@@H](c1cnn2cc([C@@H](NC(=O)c3nonc3O)C3CCC(F)(F)CC3)nc2c1)C1CC1` [Example 412, N—((S)-(7-((R)-Cyclopropyl(2-(3,3-difluorocyclobutyl)acetamido)methyl)imidazo[1,2-b]pyridazin-2-yl)(4,4-difluorocyclohexyl)methyl)-4-hydroxy-1,2,5-oxadiazole-3-carboxamide]: the IC50 is more than 20000 nM in experiment [1] and more than 50000 nM in experiment [2].
Take `O=C(CC1CC(F)(F)C1)N[C@@H](c1cnn2cc([C@@H](NC(=O)c3nonc3C(F)F)C3CCC(F)(F)CC3)nc2c1)C1CC1` [Example 413, N—((S)-(7-((R)-Cyclopropyl(2-(3,3-difluorocyclobutyl)acetamido)methyl)imidazo[1,2-b]pyridazin-2-yl)(4,4-difluorocyclohexyl)methyl)-4-(difluoromethyl)-1,2,5-oxadiazole-3-carboxamide]: the IC50 in experiment [1] turned out to be 170 nM; in experiment [2], 61 nM.
Regarding `O=C(CCC(F)(F)F)N[C@@H](c1cnn2cc([C@@H](NC(=O)c3cncc(C4CC4)c3)C3CCC(F)(F)CC3)nc2c1)C1CC1` [Example 414, 5-Cyclopropyl-N—((S)-(7-((R)-cyclopropyl(4,4,4-trifluorobutanamido)methyl)imidazo[1,2-b]pyridazin-2-yl)(4,4-difluorocyclohexyl)methyl)nicotinamide], the 50% inhibitory concentration (IC50) in experiment [1] came to 730 nM; in experiment [2], 57 nM.
The like results for `CC(C)c1cncc(C(=O)N[C@H](c2cn3ncc([C@H](NC(=O)CCC(F)(F)F)C4CC4)cc3n2)C2CCC(F)(F)CC2)c1` [Example 415, N—((S)-(7-((R)-Cyclopropyl(4,4,4-trifluorobutanamido)methyl)imidazo[1,2-b]pyridazin-2-yl)(4,4-difluorocyclohexyl)methyl)-5-isopropylnicotinamide] were, in that order, 500 nM and 73 nM.
Regarding `O=C(CCC(F)(F)F)N[C@@H](c1cnn2cc([C@@H](NC(=O)c3cncc(C4CCC4)c3)C3CCC(F)(F)CC3)nc2c1)C1CC1` [Example 416, 5-Cyclobutyl-N—((S)-(7-((R)-cyclopropyl(4,4,4-trifluorobutanamido)methyl)imidazo[1,2-b]pyridazin-2-yl)(4,4-difluorocyclohexyl)methyl)nicotinamide], the IC50 in experiment [1] turned out to be 550 nM; in experiment [2], 62 nM.
Consider `O=C(CCC(F)(F)F)N[C@@H](c1cnn2cc([C@@H](NC(=O)c3cncc(OC(F)F)c3)C3CCC(F)(F)CC3)nc2c1)C1CC1` [Example 417, N—((S)-(7-((R)-Cyclopropyl(4,4,4-trifluorobutanamido)methyl)imidazo[1,2-b]pyridazin-2-yl)(4,4-difluorocyclohexyl)methyl)-5-(difluoromethoxy)nicotinamide], for which the IC50 stood at 410 nM in experiment [1] and 68 nM in experiment [2].
Take `Cc1cc(C(=O)N[C@H](c2cn3ncc([C@H](NC(=O)CCC(F)(F)F)C4CC4)cc3n2)C2CCC(F)(F)CC2)cnn1` [Example 418, N—((S)-(7-((R)-Cyclopropyl(4,4,4-trifluorobutanamido)methyl)imidazo[1,2-b]pyridazin-2-yl)(4,4-difluorocyclohexyl)methyl)-6-methylpyridazine-4-carboxamide]: the IC50 is more than 20000 nM in experiment [1] and 4600 nM in experiment [2].
